Reference: patent US20220348590A1, “CYCLOOXYGENASE-2 INHIBITORS AND USES THEREOF” (The Board Institute, Inc., priority 2019, published 2022)
Where two headings read alike, the source gives them in different places.

Target: T1, human recombinant COX2 (hCOX2) (UniProt P35354)
T1 sequence (P35354 1-604): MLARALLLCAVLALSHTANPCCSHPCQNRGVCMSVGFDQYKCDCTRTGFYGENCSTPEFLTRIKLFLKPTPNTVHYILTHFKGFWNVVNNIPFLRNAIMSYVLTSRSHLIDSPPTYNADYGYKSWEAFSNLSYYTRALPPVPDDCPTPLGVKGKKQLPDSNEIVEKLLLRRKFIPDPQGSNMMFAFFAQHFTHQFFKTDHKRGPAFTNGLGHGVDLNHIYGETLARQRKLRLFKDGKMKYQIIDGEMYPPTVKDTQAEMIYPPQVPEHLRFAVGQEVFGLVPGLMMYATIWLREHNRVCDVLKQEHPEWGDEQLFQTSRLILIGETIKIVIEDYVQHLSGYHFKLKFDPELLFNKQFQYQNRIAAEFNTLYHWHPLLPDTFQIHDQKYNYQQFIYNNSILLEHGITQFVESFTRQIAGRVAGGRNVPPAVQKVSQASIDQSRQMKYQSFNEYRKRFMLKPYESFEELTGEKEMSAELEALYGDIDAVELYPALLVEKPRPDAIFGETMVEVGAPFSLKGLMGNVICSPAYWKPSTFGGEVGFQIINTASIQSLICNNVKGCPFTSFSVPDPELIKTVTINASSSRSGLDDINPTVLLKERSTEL
Assay: LCMS-based COX2 enzymatic inhibition assay (PGE2 quantification)
Assay type: biochemical
Set-up: COX2 2 minutes pge2/pge2d4 area ratio Avg; other: 2 minutes; readout pge2/pge2d4 area ratio; average; COX2 2 minutes pge2/pge2d4 area ratio Avg; LLE; average LLE; COX2 2 minutes pge2 area (counts) Avg; readout pge2 area (counts); other: 2 min; "ovine COX2 (oCOX2), human recombinant COX2 (hCOX2)"
Details: for COX2 2 minutes pge2/pge2d4 area ratio Avg. LLE / COX2 2 minutes pge2 area (counts) Avg. LLE / COX2 10 minutes pge2 area (counts) Avg. LLE: average LLE; for IC50: average
Outline: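 PGE2 formed from arachidonic acid (final 5 μM, 2 min) was measured by LC-MS-MS against DMSO controls. Enzyme (oCOX-1 0.1 μg or hCOX2 0.2 μg) with hematin/epinephrine cofactors at pH 8.0 was given 10 min at 37 °C with compound first. Twelve-point curves run three times gave IC50.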

[1] = 2 minutes, readout pge2/pge2d4 area ratio
[2] = 2 minutes, readout pge2/pge2d4 area ratio, read-out: COX2 2 minutes pge2/pge2d4 area ratio Avg. IC50
[3] = 2 minutes, readout pge2 area (counts)
[4] = 2 minutes, readout pge2 area (counts), read-out: COX2 2 minutes pge2 area (counts) Avg. IC50
[5] = read-out: COX2 2 minutes pge2/pge2d4 area ratio Avg. IC50 (microM), 2 minutes, readout pge2/pge2d4 area ratio
[6] = 10 minutes, readout pge2 area (counts)
[7] = 10 minutes, readout pge2 area (counts), read-out: COX2 10 minutes pge2 area (counts) Avg. IC50

COCc1ccc(-c2ccc(S(C)(=O)=O)cc2)nc1NCc1cccs1 [Compound 189]
COX2 2 minutes pge2/pge2d4 area ratio Avg. LLE [1]: 2.767
IC50 [2]: 0.656 µM
COX2 2 minutes pge2 area (counts) Avg. LLE [3]: 2.661
IC50 [4]: 0.839 µM

COc1ncc(NCc2cocn2)nc1-c1ccc(S(C)(=O)=O)cc1 [Compound 291]
COX2 2 minutes pge2/pge2d4 area ratio Avg. LLE [1]: 3.954
COX2 2 minutes pge2 area (counts) Avg. LLE [3]: 3.954
IC50 [5]: 5.2 µM

CS(=O)(=O)c1ccc(-c2cnc(O)c(NCc3cccs3)n2)cc1 [Compound 316]
COX2 2 minutes pge2 area (counts) Avg. LLE [3]: 3.634
IC50 [5]: 5.2 µM

CS(=O)(=O)c1ccc(-c2cc3nn(Cc4cccs4)cc3cn2)cc1 [Compound 325]
IC50 [5]: 5.2 µM

CS(=O)(=O)c1ccc(-c2nc(NCc3cccs3)cnc2C(N)=O)cc1 [Compound 257]
COX2 2 minutes pge2/pge2d4 area ratio Avg. LLE [1]: 4.28
IC50 [2]: 4.09 µM
COX2 2 minutes pge2 area (counts) Avg. LLE [3]: 4.347
IC50 [4]: 3.49 µM

COc1ncc(NCc2ccncc2)nc1-c1ccc(S(C)(=O)=O)cc1 [Compound 182]
COX2 2 minutes pge2/pge2d4 area ratio Avg. LLE [1]: 5.042
IC50 [2]: 0.559 µM
COX2 2 minutes pge2 area (counts) Avg. LLE [3]: 5.147
IC50 [4]: 0.415 µM

CS(=O)(=O)c1ccc(-c2cncc(OCc3ccco3)n2)cc1 [Compound 143]
COX2 2 minutes pge2/pge2d4 area ratio Avg. LLE [1]: 4.842
IC50 [2]: 0.226 µM
COX2 2 minutes pge2 area (counts) Avg. LLE [3]: 4.928
IC50 [4]: 0.216 µM

CS(=O)(=O)c1ccc(-c2cncc(OCC3CC3)n2)cc1 [Compound 273]
COX2 2 minutes pge2/pge2d4 area ratio Avg. LLE [1]: 3.734
COX2 2 minutes pge2 area (counts) Avg. LLE [3]: 3.734
IC50 [5]: 5.2 µM

CS(=O)(=O)c1ccc(-n2ccc3ccc(Cc4cccs4)nc32)cc1 [Compound 56]
IC50 [2]: 0.0305 µM
IC50 [4]: 0.0329 µM

CS(=O)(=O)c1ccc(-c2nc(OCc3cccs3)ccc2F)cc1 [Compound 101]
COX2 2 minutes pge2/pge2d4 area ratio Avg. LLE [1]: 3.357
IC50 [2]: 0.0867 µM
COX2 2 minutes pge2 area (counts) Avg. LLE [3]: 3.332
IC50 [4]: 0.0772 µM

CS(=O)(=O)c1ccc(-c2coc3ccc(NCc4ccoc4)nc23)cc1 [Compound 55]
IC50 [2]: 0.0305 µM
IC50 [4]: 0.0265 µM

CS(=O)(=O)c1ccc(-c2cnc3ccn(Cc4cccs4)c3c2)cc1 [Compound 111]
COX2 2 minutes pge2/pge2d4 area ratio Avg. LLE [1]: 2.294
IC50 [2]: 0.0991 µM
COX2 2 minutes pge2 area (counts) Avg. LLE [3]: 2.242
IC50 [4]: 0.113 µM

CS(=O)(=O)c1ccc(-c2cncc(NC[C@@H]3CCCO3)n2)cc1 [Compound 224]
COX2 2 minutes pge2/pge2d4 area ratio Avg. LLE [1]: 4.828
IC50 [2]: 1.94 µM
COX2 2 minutes pge2 area (counts) Avg. LLE [3]: 4.821
IC50 [4]: 1.84 µM

CSc1ccc(-c2cccc(NCc3ccco3)n2)cc1 [Compound 282]
COX2 2 minutes pge2/pge2d4 area ratio Avg. LLE [1]: 1.004
COX2 2 minutes pge2 area (counts) Avg. LLE [3]: 1.004
IC50 [5]: 5.2 µM

CS(=O)(=O)c1ccc(-c2cccc([S@+]([O-])Cc3cccs3)n2)cc1 [Compound 251]
COX2 2 minutes pge2/pge2d4 area ratio Avg. LLE [1]: 3.082
IC50 [2]: 3.7 µM
COX2 2 minutes pge2 area (counts) Avg. LLE [3]: 2.9649
IC50 [4]: 4.84 µM

Cc1ccc(COc2cncc(-c3ccc(S(C)(=O)=O)cc3)n2)s1 [Compound 124]
IC50 [2]: 0.139 µM
IC50 [4]: 0.123 µM

CS(=O)(=O)c1ccc(-c2cncc(NC3CCCCC3)n2)cc1 [Compound 180]
COX2 2 minutes pge2/pge2d4 area ratio Avg. LLE [1]: 3.95
IC50 [2]: 0.555 µM
COX2 2 minutes pge2 area (counts) Avg. LLE [3]: 3.961
IC50 [4]: 0.514 µM

CS(=O)(=O)c1ccc(-c2cncc(N3CCCC3)n2)cc1 [Compound 326]
COX2 2 minutes pge2 area (counts) Avg. LLE [3]: 4.034
COX2 10 minutes pge2 area (counts) Avg. LLE [6]: 4.754
IC50 [7]: 0.99 µM
IC50 [5]: 5.2 µM

CS(=O)(=O)c1ccc(-c2cncc(NCc3cccs3)n2)nc1 [Compound 127]
COX2 2 minutes pge2/pge2d4 area ratio Avg. LLE [1]: 6.121
IC50 [2]: 0.144 µM
COX2 2 minutes pge2 area (counts) Avg. LLE [3]: 6.077
IC50 [4]: 0.169 µM

CS(=O)(=O)c1ccc(-n2ccc3ccc(Nc4cccnc4)nc32)cc1 [Compound 238]
IC50 [2]: 2.66 µM
IC50 [4]: 3.28 µM

CS(=O)(=O)c1ccc(-c2cncc(OC[C@H]3CCCO3)n2)cc1 [Compound 252]
COX2 2 minutes pge2/pge2d4 area ratio Avg. LLE [1]: 4.199
IC50 [2]: 3.72 µM
COX2 2 minutes pge2 area (counts) Avg. LLE [3]: 4.054

CS(=O)(=O)c1ccc(-c2cncc(NC[C@@H]3CCCS3)n2)cc1 (single isomer, unassigned) [Compound 167]
COX2 2 minutes pge2/pge2d4 area ratio Avg. LLE [1]: 4.792
IC50 [2]: 0.432 µM
COX2 2 minutes pge2 area (counts) Avg. LLE [3]: 4.782
IC50 [4]: 0.433 µM

CS(=O)(=O)c1ccc(-c2cncc(NCc3ccc(F)nc3)n2)cc1 [Compound 208]
COX2 2 minutes pge2/pge2d4 area ratio Avg. LLE [1]: 4.4967
IC50 [2]: 1.34 µM
COX2 2 minutes pge2 area (counts) Avg. LLE [3]: 4.501
IC50 [4]: 1.31 µM
COX2 10 minutes pge2 area (counts) Avg. LLE [6]: 5.151
IC50 [7]: 0.357 µM

CS(=O)(=O)c1ccc(-n2cnc3ccc(NCc4cccs4)nc32)cc1 [Compound 184]
IC50 [2]: 0.57 µM
IC50 [4]: 0.457 µM

CS(=O)(=O)c1ccc(-c2cncc(NC[C@H]3CCCS3)n2)cc1 (single isomer, unassigned) [Compound 162]
COX2 2 minutes pge2/pge2d4 area ratio Avg. LLE [1]: 4.811
IC50 [2]: 0.401 µM
COX2 2 minutes pge2 area (counts) Avg. LLE [3]: 4.888
IC50 [4]: 0.345 µM

CS(=O)(=O)c1ccc(-c2cccc(C3CC3c3ccoc3)n2)cc1 (single isomer, unassigned) [Compound 115, 2-[2-(furan-3-yl)cyclopropyl]-6-(4-methanesulfonylphenyl)pyridine]
COX2 2 minutes pge2/pge2d4 area ratio Avg. LLE [1]: 2.867
IC50 [2]: 0.107 µM
COX2 2 minutes pge2 area (counts) Avg. LLE [3]: 2.982
IC50 [4]: 0.0632 µM

CS(=O)(=O)c1ccc(-c2cc(NCc3ccoc3)ccn2)cc1 [Compound 242]
IC50 [2]: 3.01 µM

C[C@H](Nc1cccc(-c2ccc(S(C)(=O)=O)cc2)n1)c1ccco1 (single isomer, unassigned) [Compound 89]
COX2 2 minutes pge2/pge2d4 area ratio Avg. LLE [1]: 3.84
IC50 [2]: 0.0656 µM
COX2 2 minutes pge2 area (counts) Avg. LLE [3]: 3.875
IC50 [4]: 0.06 µM

CS(=O)(=O)c1ccc(-c2cccc([S@@+]([O-])Cc3cccs3)n2)cc1 [Compound 266]
COX2 2 minutes pge2/pge2d4 area ratio Avg. LLE [1]: 2.95
IC50 [2]: 4.84 µM
COX2 2 minutes pge2 area (counts) Avg. LLE [3]: 2.934

CS(=O)(=O)c1ccc(-c2cnc3cn(Cc4cccs4)nc3c2)cc1 [Compound 317]
IC50 [5]: 5.2 µM

CS(=O)(=O)c1ccc(-c2nc(NCc3cccs3)cnc2N)cc1 [Compound 90]
COX2 2 minutes pge2/pge2d4 area ratio Avg. LLE [1]: 5.442
IC50 [2]: 0.0671 µM
COX2 2 minutes pge2 area (counts) Avg. LLE [3]: 4.51
IC50 [4]: 0.942 µM

CS(=O)(=O)c1ccc(-c2cccc(C3CC3c3ccoc3)n2)cc1 (single isomer, unassigned) [Compound 177, 2-[2-(furan-3-yl)cyclopropyl]-6-(4-methanesulfonylphenyl)pyridine]
COX2 2 minutes pge2/pge2d4 area ratio Avg. LLE [1]: 3.065
IC50 [2]: 0.534 µM
COX2 2 minutes pge2 area (counts) Avg. LLE [3]: 2.982
IC50 [4]: 0.635 µM

CS(=O)(=O)c1ccc(-c2cncc(NCc3cnco3)n2)cc1 [Compound 215]
COX2 2 minutes pge2/pge2d4 area ratio Avg. LLE [1]: 4.859
IC50 [2]: 1.53 µM
COX2 2 minutes pge2 area (counts) Avg. LLE [3]: 4.845
IC50 [4]: 1.58 µM

COc1cnc(-c2ccc(S(C)(=O)=O)cc2)nc1OCc1cccs1 [Compound 123]
COX2 2 minutes pge2/pge2d4 area ratio Avg. LLE [1]: 3.569
IC50 [2]: 0.131 µM
COX2 2 minutes pge2 area (counts) Avg. LLE [3]: 3.5904
IC50 [4]: 0.121 µM
